The source made the active and inactive calls. The rule behind the calls is not given here.
System: rodent carcinogenicity bioassays, tumor incidence
Assay: CCRIS carcinogenicity studies
Summary of the method: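 Archive of carcinogenicity, mutagenicity, tumor promotion and tumor inhibition results drawn from journals, NCI reports and other sources, expert-reviewed; covers 1985-2011 and is no longer updated.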

O=[N+]([O-])c1ccccc1Cl
carcinogen call (Species: MOUSE, Strain/Sex: CD-1/FEMALE, Route: ORAL, Dose: 3000, 6000 MG/KG IN DIET FOR 18 MO, Tumor Site: Type of Lesion: LIVER: HEPATOCELLULAR CARCINOMA): active; positive

CCCOC(=O)c1cc(O)c(O)c(O)c1
carcinogen call (Species: MOUSE, Strain/Sex: B6C3F1/FEMALE, Route: ORAL, Dose: 0, 6000, 12000 PPM IN DIET FOR 103 WK (STUDY DURATION: 103 WK), Dose: 0, 6000, 12000 PPM IN DIET FOR 103 WK (STUDY DURATION: 103 WK)): inactive; negative | carcinogen call (Species: MOUSE, Strain/Sex: B6C3F1/MALE, Route: ORAL, Dose: 0, 6000, 12000 PPM IN DIET FOR 103 WK (STUDY DURATION: 103 WK), Dose: 0, 6000, 12000 PPM IN DIET FOR 103 WK (STUDY DURATION: 103 WK), Tumor Site: Type of Lesion: HEMATOPOIETIC SYSTEM: MALIGNANT LYMPHOMA): equivocal | carcinogen call (Species: RAT, Strain/Sex: F344/FEMALE, Route: ORAL, Dose: 0, 6000, 12000 PPM IN DIET FOR 103 WK (STUDY DURATION: 103 WK), Dose: 0, 6000, 12000 PPM IN DIET FOR 103 WK (STUDY DURATION: 103 WK)): inactive; negative | carcinogen call (Species: RAT, Strain/Sex: F344/MALE, Route: ORAL, Dose: 0, 6000, 12000 PPM IN DIET FOR 103 WK (STUDY DURATION: 103 WK), Dose: 0, 6000, 12000 PPM IN DIET FOR 103 WK (STUDY DURATION: 103 WK), Tumor Site: Type of Lesion: PREPUTIAL GLAND: CARCINOMA OR ADENOMA OR ADENOCARCINOMA, PANCREAS: ISLET CELL ADENOMA OR CARCINOMA, ADRENAL GLAND: PHEOC, Tumor Site: Type of Lesion: PREPUTIAL GLAND: CARCINOMA OR ADENOMA OR ADENOCARCINOMA, PANCREAS: ISLET CELL ADENOMA OR CARCINOMA, ADRENAL GLAND: PHEOC): equivocal

O=C1CCc2ccccc2O1
carcinogen call (Species: MOUSE, Strain/Sex: B6C3F1/FEMALE, Route: GAVAGE, Dose: 0, 200, 400, 800 MG/KG IN CORN OIL 1/D 5 D/WK FOR 103 WK (STUDY DURATION: 103 WK), Dose: 0, 200, 400, 800 MG/KG IN CORN OIL 1/D 5 D/WK FOR 103 WK (STUDY DURATION: 103 WK), Tumor Site: Type of Lesion: LIVER: HEPATOCELLULAR ADENOMA, HEPATOCELLULAR ADENOMA OR CARCINOMA): active; positive | carcinogen call (Species: MOUSE, Strain/Sex: B6C3F1/MALE, Route: GAVAGE, Dose: 0, 200, 400, 800 MG/KG IN CORN OIL 1/D 5 D/WK FOR 103 WK (STUDY DURATION: 103 WK), Dose: 0, 200, 400, 800 MG/KG IN CORN OIL 1/D 5 D/WK FOR 103 WK (STUDY DURATION: 103 WK)): inactive; negative | carcinogen call (Species: RAT, Strain/Sex: F344/FEMALE, Route: GAVAGE, Dose: 0, 150, 300, 600 MG/KG IN CORN OIL 1/D 5 D/WK FOR 103 WK (STUDY DURATION: 103 WK), Dose: 0, 150, 300, 600 MG/KG IN CORN OIL 1/D 5 D/WK FOR 103 WK (STUDY DURATION: 103 WK)): inactive; negative | carcinogen call (Species: RAT, Strain/Sex: F344/MALE, Route: GAVAGE, Dose: 0, 150, 300, 600 MG/KG IN CORN OIL 1/D 5 D/WK FOR 103 WK (STUDY DURATION: 103 WK), Dose: 0, 150, 300, 600 MG/KG IN CORN OIL 1/D 5 D/WK FOR 103 WK (STUDY DURATION: 103 WK), Tumor Site: Type of Lesion: KIDNEY (RENAL TUBULE): ADENOMA): active; positive

ClCOCCOCCl
carcinogen call (Species: MOUSE, Strain/Sex: ICR/HA SWISS/FEMALE, Route: DERMAL, Dose: 0, 1 MG IN 0.1 ML CYCLOHEXANE 3/WK FOR 502 D (STUDY DURATION: 570 D), Tumor Site: Type of Lesion: SKIN: PAPILLOMA, SKIN: SQUAMOUS CARCINOMA): active; positive | carcinogen call (Species: MOUSE, Strain/Sex: ICR/HA SWISS/FEMALE, Route: INTRAPERITONEAL, Dose: 0, 0.3 MG IN 0.05 ML TRICAPRYLIN 1/WK FOR 546 D (STUDY DURATION: 570 D), Tumor Site: Type of Lesion: PERITONEUM: SARCOMA): active; positive | carcinogen call (Species: MOUSE, Strain/Sex: ICR/HA SWISS/FEMALE, Route: SUBCUTANEOUS, Dose: 0, 0.3 MG IN 0.05 ML TRICAPRYLIN 1/WK FOR 569 D (STUDY DURATION: 570 D), Tumor Site: Type of Lesion: INJECTION SITE: SARCOMA): active; positive

Nc1ccccc1C(=O)O
carcinogen call (Species: MOUSE, Strain/Sex: B6C3F1/FEMALE, Route: ORAL, Dose: 0, 25000, 50000 PPM IN DIET, Dose: 0, 25000, 50000 PPM IN DIET): inactive; negative | carcinogen call (Species: MOUSE, Strain/Sex: B6C3F1/MALE, Route: ORAL, Dose: 0, 25000, 50000 PPM IN DIET, Dose: 0, 25000, 50000 PPM IN DIET): inactive; negative | carcinogen call (Species: RAT, Strain/Sex: F344/FEMALE, Route: ORAL, Dose: 0, 15000, 30000 PPM IN DIET, Dose: 0, 15000, 30000 PPM IN DIET): inactive; negative | carcinogen call (Species: RAT, Strain/Sex: F344/MALE, Route: ORAL, Dose: 0, 15000, 30000 PPM IN DIET, Dose: 0, 15000, 30000 PPM IN DIET): inactive; negative

CCCCCCCCCCCCCC(=O)ON(C(C)=O)c1ccc2c(c1)Cc1ccccc1-2
carcinogen call (Species: RAT, Strain/Sex: F344/MALE, Route: SUBCUTANEOUS, Dose: 10.6 UMOL IN 0.2 ML DMSO-TRIOCTANOIN 1/WK FOR 6 WK, Tumor Site: Type of Lesion: INJECTION SITE: FIBROSARCOMA OR FIBROMYOSARCOMA OR FIBROLIPOSARCOMA): active; positive

Cc1c([N+](=O)[O-])c(C)c([N+](=O)[O-])c(C(C)(C)C)c1[N+](=O)[O-]
carcinogen call (Species: MOUSE, Strain/Sex: B6C3F1/FEMALE, Route: ORAL, Dose: 0, 0.075, 0.15% IN DIET FOR 80 WK (STUDY DURATION: 80 WK), Dose: 0, 0.075, 0.15% IN DIET FOR 80 WK (STUDY DURATION: 80 WK), Tumor Site: Type of Lesion: LIVER: ADENOMA): active; positive | carcinogen call (Species: MOUSE, Strain/Sex: B6C3F1/MALE, Route: ORAL, Dose: 0, 0.075, 0.15% IN DIET FOR 80 WK (STUDY DURATION: 80 WK), Dose: 0, 0.075, 0.15% IN DIET FOR 80 WK (STUDY DURATION: 80 WK), Tumor Site: Type of Lesion: LIVER: ADENOMA, CARCINOMA, HARDERIAN GLAND: ADENOMA): active; positive

Cc1cc2ccccc2c2ccc3c(c12)C=C[C@@H](O)[C@@H]3O
carcinogen call (Species: MOUSE, Strain/Sex: ICR/FEMALE, Route: INTRAPERITONEAL, Dose: 8 NMOL/5 µL DMSO ON DAY 1, 16 NMOL/10 µL ON DAY 8, AND 32 NMOL/20 µL ON DAY 15 OF AGE (STUDY DURATION: 35 WK), Tumor Site: Type of Lesion: LUNG: TUMORS): active; positive | carcinogen call (Species: MOUSE, Strain/Sex: ICR/MALE, Route: INTRAPERITONEAL, Dose: 8 NMOL/5 µL DMSO ON DAY 1, 16 NMOL/10 µL ON DAY 8, AND 32 NMOL/20 µL ON DAY 15 OF AGE (STUDY DURATION: 35 WK), Tumor Site: Type of Lesion: LUNG: TUMORS, LIVER: TUMORS): active; positive

CN(N=O)C(CCCO)c1cccnc1 (stereo unspecified)
carcinogen call (Species: MOUSE, Strain/Sex: STRAIN-A/FEMALE, Route: INTRAPERITONEAL, Dose: 0, 200 UMOL TOTAL DOSE ADMINISTERED IN SUBDOSES 3/WK FOR 7 WK (STUDY DURATION: 37 WK)): inactive; negative

CC(C)([CH2][Sn]([CH2]C(C)(C)c1ccccc1)([CH2]C(C)(C)c1ccccc1)[O][Sn]([CH2]C(C)(C)c1ccccc1)([CH2]C(C)(C)c1ccccc1)[CH2]C(C)(C)c1ccccc1)c1ccccc1
carcinogen call (Species: Mouse, Strain/Sex: Unspecified strain/Female (96/Control group; 48/Experimental group), Route: Oral, Dose: 0, 50, 100, 300, 600 ppm of 97% fenbutatin oxide in the diet for 18 mo, study duration 18 mo, Dose: 0, 50, 100, 300, 600 ppm of 97% fenbutatin oxide in the diet for 18 mo, study duration 18 mo): inactive; negative | carcinogen call (Species: Mouse, Strain/Sex: Unspecified strain/Male (96/Control group; 48/Experimental group), Route: Oral, Dose: 0, 50, 100, 300, 600 ppm of 97% fenbutatin oxide in the diet for 18 mo, study duration 18 mo, Dose: 0, 50, 100, 300, 600 ppm of 97% fenbutatin oxide in the diet for 18 mo, study duration 18 mo): inactive; negative | carcinogen call (Species: Rat, Strain/Sex: Carworth Farm E/Female (96/Control group; 48/Experimental group), Route: Oral, Dose: 0, 50, 100, 300, 600 ppm of 97% fenbutatin oxide in the diet for 2 yr, study duration 2 yr, Dose: 0, 50, 100, 300, 600 ppm of 97% fenbutatin oxide in the diet for 2 yr, study duration 2 yr): inactive; negative | carcinogen call (Species: Rat, Strain/Sex: Carworth Farm E/Male (96/Control group; 48/Experimental group), Route: Oral, Dose: 0, 50, 100, 300, 600 ppm of 97% fenbutatin oxide in the diet for 2 yr, study duration 2 yr, Dose: 0, 50, 100, 300, 600 ppm of 97% fenbutatin oxide in the diet for 2 yr, study duration 2 yr): inactive; negative

From PubChem BioAssay AID1259411 (Chemical Carcinogenesis Research Information System (CCRIS), 2018)
